From ChEMBL document CHEMBL3871284, “Structure-activity relationship-based screening of antibiotics against Gram-negative Acinetobacter baumannii” (Bioorg Med Chem, 2017)
Values after ≈ are worked out from the molar mass of the structure shown.

Key:
[1] = Binding affinity to Acinetobacter baumannii His-tagged KAS3 expressed in Escherichia coli BL21(DE3) by tryptophan emission assay
[2] = tested on: Escherichia coli; assay: Antimicrobial activity against Escherichia coli KCTC 1682 after 16 hrs by broth microdilution assay; assay type: functional; conditions: KCTC 1682, 16 h
[3] = tested on: Acinetobacter baumannii; assay: Antimicrobial activity against Acinetobacter baumannii KCTC 2508 after 16 hrs by broth microdilution assay; assay type: functional; conditions: KCTC 2508, 16 h
[4] = tested on: Pseudomonas aeruginosa; assay: Antimicrobial activity against Pseudomonas aeruginosa KCTC 1637 after 16 hrs by broth microdilution assay; assay type: functional; conditions: KCTC 1637, 16 h
[5] = tested on: Staphylococcus aureus; assay: Antimicrobial activity against Staphylococcus aureus after 16 hrs by broth microdilution assay; assay type: functional
[6] = tested on: Bacillus subtilis; assay: Antimicrobial activity against Bacillus subtilis after 16 hrs by broth microdilution assay; assay type: functional
[7] = tested on: Staphylococcus epidermidis; assay: Antimicrobial activity against Staphylococcus epidermidis after 16 hrs by broth microdilution assay; assay type: functional
[8] = tested on: Escherichia coli; assay: Antimicrobial activity against multidrug resistant Escherichia coli CCARM 1238 after 16 hrs by broth microdilution assay; assay type: functional; conditions: CCARM 1238, 16 h
[9] = tested on: Escherichia coli; assay: Antimicrobial activity against multidrug resistant Escherichia coli CCARM 1229 after 16 hrs by broth microdilution assay; assay type: functional; conditions: CCARM 1229, 16 h
[10] = tested on: Pseudomonas aeruginosa; assay: Antimicrobial activity against multidrug resistant Pseudomonas aeruginosa CCARM 2002 after 16 hrs by broth microdilution assay; assay type: functional; conditions: CCARM 2002, 16 h
[11] = tested on: Pseudomonas aeruginosa; assay: Antimicrobial activity against multidrug resistant Pseudomonas aeruginosa CCARM 2095 after 16 hrs by broth microdilution assay; assay type: functional; conditions: CCARM 2095, 16 h
[12] = tested on: Pseudomonas aeruginosa; assay: Antimicrobial activity against multidrug resistant Pseudomonas aeruginosa CCARM 2163 after 16 hrs by broth microdilution assay; assay type: functional; conditions: CCARM 2163, 16 h
[13] = tested on: Acinetobacter baumannii; assay: Antimicrobial activity against multidrug resistant Acinetobacter baumannii CCARM 12005 after 16 hrs by broth microdilution assay; assay type: functional; conditions: CCARM 12005, 16 h
[14] = tested on: Acinetobacter baumannii; assay: Antimicrobial activity against multidrug resistant Acinetobacter baumannii CCARM 12035 after 16 hrs by broth microdilution assay; assay type: functional; conditions: CCARM 12035, 16 h
[15] = tested on: Acinetobacter baumannii; assay: Antimicrobial activity against multidrug resistant Acinetobacter baumannii CCARM 12036 after 16 hrs by broth microdilution assay; assay type: functional; conditions: CCARM 12036, 16 h
[16] = tested on: Acinetobacter baumannii; assay: Antimicrobial activity against multidrug resistant Acinetobacter baumannii CCARM 12037 after 16 hrs by broth microdilution assay; assay type: functional; conditions: CCARM 12037, 16 h
[17] = tested on: Staphylococcus aureus; assay: Antimicrobial activity against Methicillin-resistant Staphylococcus aureus isolate 3114 after 16 hrs by broth microdilution assay; assay type: functional; conditions: isolate 3114, 16 h
[18] = tested on: Staphylococcus aureus; assay: Antimicrobial activity against Methicillin-resistant Staphylococcus aureus 3126 after 16 hrs by broth microdilution assay; assay type: functional; conditions: Staphylococcus aureus, 3126, 16 h

For `COc1ccc(/C=N/NCc2ccc(C)cc2)c(O)c1`, the Kd [1] was > 100 µM, the MIC [2] was > 32 µg/mL and the MIC [3] was > 32 µg/mL. For the same compound, the MIC [4] was > 32 µg/mL, the MIC [5] was > 32 µg/mL and the MIC [6] was > 32 µg/mL. For the same compound, the MIC [7] was > 32 µg/mL, the MIC [8] was > 32 µg/mL and the MIC [9] was > 32 µg/mL. For the same compound, the MIC [10] was > 32 µg/mL, the MIC [11] was > 32 µg/mL and the MIC [12] was > 32 µg/mL. For the same compound, the MIC [13] was > 32 µg/mL, the MIC [14] was > 32 µg/mL and the MIC [15] was > 32 µg/mL. The MIC [16] was > 32 µg/mL, the MIC [17] was > 32 µg/mL and the MIC [18] was > 32 µg/mL.
With `COc1ccccc1/C=N/NCc1ccc(C(=O)O)cc1` the Kd [1] was 20.2 µM, the MIC [2] was > 32 µg/mL and the MIC [3] was > 32 µg/mL. For the same compound, the MIC [4] was > 32 µg/mL, the MIC [5] was > 32 µg/mL and the MIC [6] was > 32 µg/mL. The MIC [7] was > 32 µg/mL, the MIC [8] was > 32 µg/mL and the MIC [9] was > 32 µg/mL. For the same compound, the MIC [10] was > 32 µg/mL, the MIC [11] was > 32 µg/mL and the MIC [12] was > 32 µg/mL. For the same compound, the MIC [13] was > 32 µg/mL, the MIC [14] was > 32 µg/mL and the MIC [15] was > 32 µg/mL. The MIC [16] was > 32 µg/mL, the MIC [17] was > 32 µg/mL and the MIC [18] was > 32 µg/mL.
In the case of `Oc1cccc(Br)c1/C=N/NCc1cccc(C(F)(F)F)c1`, the Kd [1] is reported as > 100 µM, the MIC [2] is reported as > 32 µg/mL and the MIC [3] is reported as > 32 µg/mL. For the same compound, the MIC [4] was > 32 µg/mL, the MIC [5] was > 32 µg/mL and the MIC [6] was > 32 µg/mL. The MIC [7] was > 32 µg/mL, the MIC [8] was > 32 µg/mL and the MIC [9] was > 32 µg/mL. For the same compound, the MIC [10] was > 32 µg/mL, the MIC [11] was > 32 µg/mL and the MIC [12] was > 32 µg/mL. For the same compound, the MIC [13] was > 32 µg/mL, the MIC [14] was > 32 µg/mL and the MIC [15] was > 32 µg/mL. The MIC [16] was > 32 µg/mL, the MIC [17] was > 32 µg/mL and the MIC [18] was > 32 µg/mL.
For `Oc1ccc(/C=N/NCc2ccc(C(F)(F)F)cc2)c(O)c1`, the Kd [1] was 0.596 µM, the MIC [2] was > 32 µg/mL and the MIC [3] was 16 µg/mL (≈ 51.6 µM). For the same compound, the MIC [4] was > 32 µg/mL, the MIC [5] was 2 µg/mL (≈ 6.45 µM) and the MIC [6] was 4 µg/mL (≈ 12.9 µM). For the same compound, the MIC [7] was 16 µg/mL (≈ 51.6 µM), the MIC [8] was > 32 µg/mL and the MIC [9] was > 32 µg/mL. For the same compound, the MIC [10] was > 32 µg/mL, the MIC [11] was > 32 µg/mL and the MIC [12] was > 32 µg/mL. The MIC [13] was 8 µg/mL (≈ 25.8 µM), the MIC [14] was 16 µg/mL (≈ 51.6 µM) and the MIC [15] was 16 µg/mL (≈ 51.6 µM). The MIC [16] was 16 µg/mL (≈ 51.6 µM), the MIC [17] was 4 µg/mL (≈ 12.9 µM) and the MIC [18] was 8 µg/mL (≈ 25.8 µM).
With `COc1ccc(/C=N/NCc2ccc(C(F)(F)F)cc2)c(O)c1` the Kd [1] was 22 µM, the MIC [2] was > 32 µg/mL and the MIC [3] was > 32 µg/mL. The MIC [4] was > 32 µg/mL, the MIC [5] was > 32 µg/mL and the MIC [6] was > 32 µg/mL. The MIC [7] was > 32 µg/mL, the MIC [8] was > 32 µg/mL and the MIC [9] was > 32 µg/mL. The MIC [10] was > 32 µg/mL, the MIC [11] was > 32 µg/mL and the MIC [12] was > 32 µg/mL. For the same compound, the MIC [13] was > 32 µg/mL, the MIC [14] was > 32 µg/mL and the MIC [15] was > 32 µg/mL. The MIC [16] was > 32 µg/mL, the MIC [17] was > 32 µg/mL and the MIC [18] was > 32 µg/mL.
With `CCCOc1ccc(/C=N/NCc2ccc3ccccc3c2)c(O)c1` the Kd [1] was 21.7 µM, the MIC [2] was > 32 µg/mL and the MIC [3] was > 32 µg/mL. For the same compound, the MIC [4] was > 32 µg/mL, the MIC [5] was > 32 µg/mL and the MIC [6] was > 32 µg/mL. For the same compound, the MIC [7] was > 32 µg/mL, the MIC [8] was > 32 µg/mL and the MIC [9] was > 32 µg/mL. The MIC [10] was > 32 µg/mL, the MIC [11] was > 32 µg/mL and the MIC [12] was > 32 µg/mL. The MIC [13] was > 32 µg/mL, the MIC [14] was > 32 µg/mL and the MIC [15] was > 32 µg/mL. The MIC [16] was > 32 µg/mL, the MIC [17] was > 32 µg/mL and the MIC [18] was > 32 µg/mL.
